Like-named read-outs stand apart in the source and are kept apart here. Where a SMILES comes first, the peptide text is derived from it. The star is where a group is joined. Cbz = O=C(OCc1ccccc1)*
How the values were obtained:
20S proteasome [1] = biological target: T1, 20S proteasome (Homo sapiens, UniProt P28074+P49721); assay: 20S proteasome activity (chymotrypsin-like, Suc-Leu-Leu-Val-Tyr-MCA substrate); type: biochemical; details: for IC50: 37 °C, 1 h
T1 construct: purchased Calbiochem
Method: 20S Proteasome activity was assessed by fluorescence of free AMC (7-Amino-4-methylcoumarin, excitation: 380 nm, emission: 460 nm) liberated from a substrate peptide (Suc-Leu-Leu-Val-Tyr-MCA). The reaction mixture contained the 20S proteasome (500 μg/ml), the substrate peptide (10 μM) and the indicated drugs in 25 mM HEPES, 0.5 mM EDTA, 0.03% SDS, pH 7.6. The mixture was incubated at 37 °C for 1 h. AMC fluorescence liberated in the absence of drugs was taken as the basal value (100%). The fluorescence liberated in the absence of SDS was taken as the background value (0%)[13]. Most of the activity assays were conducted using an assay kit (Calbiochem), but some were conducted in hand-made buffer solutions.
Concentration dependence of the effects of each drug on the stability of the short-lived protein and the 20S proteasome activity was fitted using the following equation: B%=Bmax·[Drug]^n/(IC50^n+[Drug]^n) where, B% represents the changes in expression of the short-lived protein and the 20S proteasome activity induced by drugs at a given concentration of the [drug], and Bmax represents the maximum attainable reduction. IC50 and n are the half-maximal inhibitory concentration and Hill coefficient, respectively.

p53 in MKN45 cells = assay: Endogenous p53 expression in MKN45 cells (Western blot); type: cell-based; details: 24 h
Method: Cell lysates were analyzed by Western blot analysis (a). Quantitative analysis of p53-FLAG stability using densitometry is shown in (b). Each point was expressed relative to the values in the absence of drugs (100%). […] Cell lysates were analyzed by Western blot analysis (c). Quantitative analysis of the protein level of endogenous p53 was conducted using densitometry (d).
(§1) The same amounts (10 μg) of protein were separated on SDS-PAGE and electro-transferred to a polyvinylidene difluoride membrane. Membranes were probed with antibodies against FLAG (1:1000, Cosmo Bio), GFP (1:1000, Molecular Probes), ubiquitin (1:1000, MBL) or β-actin (1:1000, Oncogene) and were developed using an ECL detection system. Immunoprecipitation was carried out in PBS/1% Triton X-100, 0.5% SDS, 0.25% sodium deoxycholate, 1 mM ethylenediaminetetraacetic acid (EDTA), and 10 μg/ml aprotinin, 10 μg/ml leupeptine, 10 μg/ml pepstatin and 1 mM phenylmethylsulfonylfluoride for 2 h at 4 °C. Immune complexes were collected with protein G agarose (GE Healthcare Life Science) and bound proteins were analyzed by SDS-PAGE followed by immunoblotting.

p53-FLAG in COS7 cells = assay: p53-FLAG expression in transfected COS7 cells (Western blot); type: cell-based
Method: pcDNA3/p53-FLAG was a kind gift from Dr. Nakayama (Kyushu University). pcDNA3/Mdm2 (C438A) was a kind gift from Dr. Yasuda (Tokyo Pharmaceutical College). pCR/CMV/hH1 was a kind gift from Dr. Makita (Hokkaido University). COS7 cells were maintained in Dulbecco’s modified Eagle medium (Gibco BRL)/10% fetal bovine serum at 37 °C in a 5% CO2 incubator. Cells were transfected using lipofectamine (Gibco BRL) according to the instructions provided by the manufacturer. Forty-eight hours after transfection, cells were assayed. Proteasome inhibitors or LAs were applied 36 hours after transfection. All drugs except for MG132 were dissolved in culture medium or distilled water. MG132 was dissolved in dimethyl sulfoxide (DMSO). The final concentration of DMSO in the culture or reaction medium was equal to or less than 0.01% v/v. Pilsicainide was kindly provided by Daiichi Suntory Pharmaceutical Co., Ltd. (Osaka, Japan).
as §1

20S proteasome [2] = biological target: T1, 20S proteasome; assay: [3H]-pilsicainide binding assay; details: displacement of [3H]-pilsicainide, 1 h, room temperature
Method: Commercially available 20S proteasome was purchased from Calbiochem. LAs and their derivatives at increasing concentrations (10^–8 to 10^–2 M) were incubated with [^3H]-pilsicainide for 1 h at room temperature in buffer containing 50 mM HEPES supplemented with 1% bovine serum albumin (pH 7.4). Following the reaction termination by addition of 100% […], the bound and unbound ligands were separated by centrifugation. Specific binding was defined as the difference between binding capacities in the pellet and supernatant.

MKN45 cells [3] = assay: Proliferation of MKN45 cells (MTT assay); type: cell-based; details: 24 h, p53-expressing cells
Source text: Figure 4 Effects of LAs on cancer cells. (a) Effects of LAs on the proliferation of MKN45 cells. […] Proliferation of […] was estimated by MTT assays.

[4] = biological target: T2, wild-type 20S proteasome trypsin-like activity (Saccharomyces cerevisiae, UniProt P25043); assay: Trypsin-like activity of the wild-type 20S proteasome; type: biochemical
T2 construct: U.B. purified the yeast 20S proteasome and assayed proteasome activity; made in house; host or cells: yeast (purified from wild-type cells; inferred)

Kato III cells = assay: Proliferation of Kato III cells; type: cell-based; details: 24 h; pilsicainide 1 μM, lidocaine 20 μM; cells do not express p53
[5] = biological target: T3, wild-type 20S proteasome caspase-like activity (Saccharomyces cerevisiae, UniProt P38624); assay: Caspase-like activity of the wild-type 20S proteasome; type: biochemical
T3 construct: U.B. purified the yeast 20S proteasome and assayed proteasome activity; made in house; host or cells: yeast (purified from wild-type cells; inferred)

MKN45 cells [6] = assay: Tumor growth of pretreated MKN45 cells transplanted into mice; type: in vivo; details: MKN45 cells pretreated with drug, transplanted into the intestine of SOD SKID mice
20S proteasome [7] = biological target: T1, 20S proteasome; set-up: method as in PMID 23026372; details: previously reported; cited from earlier work
[8] = COS7 cells transfected with p53-FLAG
[9] = COS7 cells, dominant negative Mdm2 (C438A), 12 h, MG132 50 µM, pilsicainide 20 µM, lidocaine 1 mM

NC1=N[C@H](O)[C@H]2[C@H]3O[C@]4(O)O[C@@H]([C@@H](O)[C@@]2(N1)[C@@H]4O)[C@]3(O)CO [Tetrodotoxin]
Effect on 20S proteasome activity (in words) (20S proteasome [1]): did not inhibit 20S proteasome activity

O=C(CC12CCCN1CCC2)Nc1ccc(F)cc1 [4-F]
Effect on 20S proteasome activity (in words) (20S proteasome [1]; in vitro): partially inhibited | Endogenous p53 protein level (in words) (p53 in MKN45 cells): increased p53 a little | Expression of p53-FLAG protein (in words) (p53-FLAG in COS7 cells; [8]): partially increased | Kd (20S proteasome [2]): 20 ± 3.2 µM

CCN(CC)CCCN(c1ccccc1)C1Cc2ccccc2C1 [aprindine]
Effect on 20S proteasome activity (in words) (20S proteasome [1]; in vitro): inhibit the 20S proteasome

O=C(CC12CCCN1CCC2)Nc1ccccc1F [2-F]
Effect on 20S proteasome activity (in words) (20S proteasome [1]; in vitro): partially inhibited | IC50 (20S proteasome [1]; in vitro): 21.5 ± 46.8 µM

Cc1cccc(C)c1NC(=O)CC12CCCN1CCC2 [pilsicainide]
Effect on 20S proteasome activity (in words) (20S proteasome [1]; in vitro): inhibited 20S proteasome activity | IC50 (20S proteasome [1]; in vitro): 3.5 ± 1.5 µM | Proliferation of MKN45 cells (in words) (MKN45 cells [3]): suppressed proliferation of MKN45 cells in a dose-dependent manner | Trypsin-like activity inhibition (in words) [4]: not inhibited | Suppression of proliferation of Kato III cells (in words) (Kato III cells): not observed | Endogenous p53 protein level (in words) (p53 in MKN45 cells): increased the p53 protein level in MKN45 cells in a dose-dependent manner | Expression of p53-FLAG protein (in words) (p53-FLAG in COS7 cells; [8]): increased the expression of p53-FLAG | Effect on p53-FLAG with co-expression of the C438A mutant of Mdm2 (in words) (p53-FLAG in COS7 cells; [9]): abolished the effects | Kd (20S proteasome [2]): 1 ± 2.8 µM | Caspase-like activity inhibition (in words) [5]: not inhibited

Cc1cccc(CCN2CCC(C(=O)c3ccc(NS(C)(=O)=O)cc3)CC2)n1 [E-4031]
Effect on 20S proteasome activity (in words) (20S proteasome [1]; in vitro): Neither the Ca^2+ channel blocker verapamil which contains two aromatic rings, nor the K^+ channel blocker E-4031, affected the activity

COc1ccc(CCN(C)CCCC(C#N)(c2ccc(OC)c(OC)c2)C(C)C)cc1OC (stereo not drawn) [verapamil]
Effect on 20S proteasome activity (in words) (20S proteasome [1]): Neither the Ca^2+ channel blocker verapamil which contains two aromatic rings, nor the K^+ channel blocker E-4031, affected the activity

CC(C)C[C@@H](C=O)NC(=O)[C@H](CC(C)C)NC(=O)[C@H](CC(C)C)NC(=O)OCc1ccccc1 [MG132] (Cbz-Leu-Leu-Leu-aldehyde)
Effect on p53-FLAG with co-expression of the C438A mutant of Mdm2 (in words) (p53-FLAG in COS7 cells): abolished the effects | Expression of p53-FLAG protein (in words) (p53-FLAG in COS7 cells): increased the expression of p53-FLAG

CCN(CC)CC(=O)Nc1c(C)cccc1C [lidocaine]
Effect on 20S proteasome activity (in words) (20S proteasome [1]; in vitro): inhibited 20S proteasome activity | Proliferation of MKN45 cells (in words) (MKN45 cells [3]): suppressed proliferation of MKN45 cells in a dose-dependent manner | Suppression of proliferation of Kato III cells (in words) (Kato III cells): not observed | Tumor growth of transplanted MKN45 cells (in words) (MKN45 cells [6]): significantly decreased the proliferation of MKN45 cells | Tumor growth of transplanted MKN45 cells (in words) (MKN45 cells [6]; listed as Lidocaine): suppression of tumor growth | Endogenous p53 protein level (in words) (p53 in MKN45 cells): increased the p53 protein level in MKN45 cells in a dose-dependent manner | Expression of p53-FLAG protein (in words) (p53-FLAG in COS7 cells; [8]): increased the expression of p53-FLAG | Effect on p53-FLAG with co-expression of the C438A mutant of Mdm2 (in words) (p53-FLAG in COS7 cells; [9]): abolished the effects | Kd (20S proteasome [2]): 21.2 ± 3.5 µM

Cc1cccc(C)c1OCC(C)N (stereo not drawn) [mexiletine]
Effect on 20S proteasome activity (in words) (20S proteasome [1]; in vitro): inhibit the 20S proteasome | IC50 (20S proteasome [1]; in vitro): 14 ± 6.3 µM

CC(C)COCC(CN(Cc1ccccc1)c1ccccc1)N1CCCC1 (stereo not drawn) [bepridil]
Inhibitory action on the proteasome (in words) (20S proteasome [7]): did not show the inhibitory action on the proteasome

O=C(CC12CCCN1CCC2)Nc1cccc(F)c1 [3-F]
Effect on 20S proteasome activity (in words) (20S proteasome [1]; in vitro): partially inhibited | IC50 (20S proteasome [1]; in vitro): 20.5 ± 21.8 µM

Reference: publication PMC5506043, “Inhibitory effects of local anesthetics on the proteasome and their biological actions” (Scientific Reports, 2017)
